In general, IC50 refers to the point on the concentration scale where inhibition reaches its midpoint.

This passage reports IC50 results from US20240317721A1, “PYRAZOLYL DERIVATIVES AS INHIBITORS OF THE KRAS MUTANT PROTEIN” (NOVARTIS AG, priority 2021, published 2024).

The target in the assay is KRasG12C (M1-K169, biotinylated on the N-terminus) (Homo sapiens (Human), UniProt P01116, G12C). As to the kind of experiment: Covalent competition assay: scintillation proximity assay (SPA) quantifying covalent modification of KRASG12C. Format: binding. Particulars: competition with radiolabeled covalent probe (Compound B/Compound A), 2 hours incubation, 10 nM KRasG12C. The procedure, abridged: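 Scintillation proximity readout after streptavidin bead capture (30 min) of biotinylated KRasG12C(M1-K169):GDP, 10 nM final, which was covalently labelled over 2 h by 25 nM radio-probe plus 475 nM cold probe unless blocked by compound.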
On the technique in general: In a scintillation proximity assay essentially only radioactivity close to the scintillant gives light.
Turning to `C=CC(=O)N1CC2(CC(n3nc(N4CCC(O)(CN5CCOCC5)CC4(C)C)c(-c4c(Cl)c(Cl)cc5[nH]ncc45)c3C)C2)C1` (single isomer, unassigned) [Example 238b, 1-(6-(4-(5,6-dichloro-1H-indazol-4-yl)-3-(4-hydroxy-2,2-dimethyl-4-(morpholinomethyl)piperidin-1-yl)-5-methyl-1H-pyrazol-1-yl)-2-azaspiro[3.3]heptan-2-yl)prop-2-en-1-one], the IC50 worked out at 503 nM.

On to `C=CC(=O)N1CC2(CC(n3nc(N4CC[C@@H](OCCN5CCOCC5)CC4(C)C)c(-c4c(Cl)c(Cl)cc5[nH]ncc45)c3C)C2)C1` (single isomer, unassigned) [Example 110a], for which the IC50 is over 5000 nM. As for `C=CC(=O)N1CC2(CC(n3nc(N4CCN(C5COC5)CC4(CC)CC)c(-c4c(Cl)c(C)cc5[nH]ncc45)c3C)C2)C1` (single isomer, unassigned) [Example 152a, 1-(6-(4-(5-chloro-6-methyl-1H-indazol-4-yl)-3-(2,2-diethyl-4-(oxetan-3-yl)piperazin-1-yl)-5-methyl-1H-pyrazol-1-yl)-2-azaspiro[3.3]heptan-2-yl)prop-2-en-1-one], the figure is over 5000 nM; as for `C=CC(=O)N1CC2(CC(n3nc(N4CC[C@@H](CN5CCN(C6COC6)C6COCC65)CC4(C)C)c(-c4c(Cl)c(Cl)cc5[nH]ncc45)c3C)C2)C1` (single isomer, unassigned) [Example 280a, 1-(6-(4-(5,6-dichloro-1H-indazol-4-yl)-3-((R)-2,2-dimethyl-4-(((4aS*,7aR*)-4-(oxetan-3-yl)hexahydrofuro[3,4-b]pyrazin-1(2H)-yl)methyl)piperidin-1-yl)-5-methyl-1H-pyrazol-1-yl)-2-azaspiro[3.3]heptan-2-yl)prop-2-en-1-one], over 5000 nM; as for `C=CC(=O)N1CC2(CC(n3nc(N4CC[C@@H](CN5CCN(C6COC6)C[C@@H]5CO)CC4(C)C)c(-c4c(Cl)c(Cl)cc5[nH]ncc45)c3C)C2)C1` (single isomer, unassigned) [Example 290a], 3400 nM. The figure for `C=CC(=O)N1CC2(CC(n3nc(N4CCN(C5COC5)C[C@]4(C)CC)c(-c4c(Cl)c(Cl)cc5[nH]ncc45)c3C)C2)C1` (single isomer, unassigned) [Example 155a] is 4000 nM; for `C=CC(=O)N1CC2(CC(n3nc(N4CC[C@@H](CN5CCOCC5)CC4(C)C)c(-c4c(C)c(Cl)cc5[nH]ncc45)c3C)C2)C1` (single isomer, unassigned) [Example 233a] it is 4000 nM. The figure for `C=CC(=O)N1CC2(CC(n3nc(N4CCn5ccnc5C4(C)C)c(-c4c(Cl)c(C)cc5[nH]ncc45)c3C)C2)C1` (single isomer, unassigned) [Example 23b, 1-(6-(4-(5-chloro-6-methyl-1H-indazol-4-yl)-3-(8,8-dimethyl-5,6-dihydroimidazo[1,2-a]pyrazin-7(8H)-yl)-5-methyl-1H-pyrazol-1-yl)-2-azaspiro[3.3]heptan-2-yl)prop-2-en-1-one] is 634 nM; for `C=CC(=O)N1CC2(CC(n3nc(N4CC[C@@H](CN5C[C@@H]6CS(=O)(=O)C[C@@H]6C5)CC4(C)C)c(-c4c(Cl)c(Cl)cc5[nH]ncc45)c3C)C2)C1` (single isomer, unassigned) [Example 294a] it is 4700 nM.

For the compound `C=CC(=O)N1CC2(CC(n3nc(N4CCC(CN5CCOCC5)CC4(C)COC)c(-c4c(Cl)c(Cl)cc5[nH]ncc45)c3C)C2)C1` (single isomer, unassigned) [Example 221b, 1-(6-(4-(5,6-dichloro-1H-indazol-4-yl)-3-(2-(methoxymethyl)-2-methyl-4-(morpholinomethyl)piperidin-1-yl)-5-methyl-1H-pyrazol-1-yl)-2-azaspiro[3.3]heptan-2-yl)prop-2-en-1-one], the IC50 was 405 nM. In the case of `C=CC(=O)N1CC2(CC(n3nc(N4CCC(CN5CC6COCC6C5)CC4(C)C)c(-c4c(Cl)c(Cl)cc5[nH]ncc45)c3C)C2)C1` (single isomer, unassigned) [Example 227b, 1-(6-(4-(5,6-dichloro-1H-indazol-4-yl)-3-(2,2-dimethyl-4-((tetrahydro-1H-furo[3,4-c]pyrrol-5(3H)-yl)methyl)piperidin-1-yl)-5-methyl-1H-pyrazol-1-yl)-2-azaspiro[3.3]heptan-2-yl)prop-2-en-1-one], the IC50 is 8 nM. As for `C=CC(=O)N1CC2(CC(n3nc(N4CCCCC4(C)C)c(-c4c(Cl)c(C)cc5[nH]ncc45)c3C)C2)C1` (single isomer, unassigned) [Example 103a, 1-(6-(4-(5-chloro-6-methyl-1H-indazol-4-yl)-3-(2,2-dimethylpiperidin-1-yl)-5-methyl-1H-pyrazol-1-yl)-2-azaspiro[3.3]heptan-2-yl)prop-2-en-1-one], the IC50 is over 5000 nM.

With `C=CC(=O)N1CC2(CC(n3nc(N4CC[C@@H](CN5CCN(C6COC6)C6COCC65)CC4(C)C)c(-c4c(Cl)c(Cl)cc5[nH]ncc45)c3C)C2)C1` (single isomer, unassigned) [Example 281a, 1-(6-(4-(5,6-dichloro-1H-indazol-4-yl)-3-((R)-2,2-dimethyl-4-(((4aS*,7aR*)-4-(oxetan-3-yl)hexahydrofuro[3,4-b]pyrazin-1(2H)-yl)methyl)piperidin-1-yl)-5-methyl-1H-pyrazol-1-yl)-2-azaspiro[3.3]heptan-2-yl)prop-2-en-1-one], the IC50 was 1670 nM.

For `C=CC(=O)N1CC2(CC(n3nc(N4CC[C@@H](CN5CC6CCC(C5)O6)CC4(C)C)c(-c4c(Cl)c(Cl)cc5[nH]ncc45)c3C)C2)C1` (single isomer, unassigned) [Example 314a], the IC50 was found to be 2100 nM. As for `C=CC(=O)N1CC2(CC(n3nc(N4CCC(N(CCOC)CCOC)CC45CCC5)c(-c4c(Cl)c(Cl)cc5[nH]ncc45)c3C)C2)C1` (single isomer, unassigned) [Example 80a, 1-(6-(3-(8-(bis(2-methoxyethyl)amino)-5-azaspiro[3.5]nonan-5-yl)-4-(5,6-dichloro-1H-indazol-4-yl)-5-methyl-1H-pyrazol-1-yl)-2-azaspiro[3.3]heptan-2-yl)prop-2-en-1-one], the figure is over 5000 nM; as for `C=CC(=O)N1CC2(CC(n3nc(N4CC=C(CN5CCOCC5)CC4(C)C)c(-c4c(Cl)c(Cl)cc5[nH]ncc45)c3C)C2)C1` (single isomer, unassigned) [Example 220b, 1-(6-(4-(5,6-dichloro-1H-indazol-4-yl)-3-(2,2-dimethyl-4-(morpholinomethyl)-3,6-dihydropyridin-1(2H)-yl)-5-methyl-1H-pyrazol-1-yl)-2-azaspiro[3.3]heptan-2-yl)prop-2-en-1-one], 36 nM. The figure for `C=CC(=O)N1CC2(CC(n3nc(N4CCN(C5CCOCC5)CC4(C)C)c(-c4c(Cl)c(Cl)cc5[nH]ncc45)c3C)C2)C1` (single isomer, unassigned) [Example 140b, 1-(6-(4-(5,6-dichloro-1H-indazol-4-yl)-3-(2,2-dimethyl-4-(tetrahydro-2H-pyran-4-yl)piperazin-1-yl)-5-methyl-1H-pyrazol-1-yl)-2-azaspiro[3.3]heptan-2-yl)prop-2-en-1-one] is 18 nM; for `C=CC(=O)N1CC2(CC(n3nc(N4CC[C@@H](CN5CC6(CCN(C7COC7)C6)C5)CC4(C)C)c(-c4c(Cl)c(Cl)cc5[nH]ncc45)c3C)C2)C1` (single isomer, unassigned) [Example 267b] it is 7 nM.
